Values joined by “and” are separate entries in the source; they are usually repeats but may differ in a detail not shown here. Equal values may be shown once. Read-outs that look alike come from different tables or passages of the source.
What was measured:
μ opiate receptor = system: μ opiate receptor; set-up: species or system guinea-pig
[1] = in vivo
[2] = Formalin-induced hind paw licking test (mouse analgesia model); type: in vivo, ICR derived male mice; conditions: for % Reduction in Hind Paw Licking time: given one hour before subplantar formalin, licking time recorded during the following 20 to 30 minute period
[3] = PQ-induced writhing test (mouse analgesia model); type: in vivo, ICR derived male mice; conditions: for % Reduction in Writhes: given 30 minutes before PQ (2 mg/kg), writhes 5 to 10 minutes after PQ

SMILES: COc1ccc2c3c1O[C@H]1[C@@H](O)C=CC4[C@@H](C2)N(CCC(=N)N)CC[C@@]341 (stereo partly drawn) [KRS-2-63, 5α,6α-7,8-didehydro-4,5-epoxy-3-methoxy-17-N-[(2-aminoiminomethyl)ethyl]morphinan]
- agonist character (full / partial) (μ opiate receptor): partial agonist activity

SMILES: CN1CC[C@]23c4c5ccc(O)c4O[C@H]2[C@@H](O)C=C[C@H]3[C@H]1C5 [Morphine, reference compound]
- Corneal reflex ([1]; 10 mg/kg): 2.9 ± 0.2
- Grip strength ([1]; 10 mg/kg): 3.7 ± 0.3
- Positional Passivity ([1]; 10 mg/kg): 8.7 ± 0.4
- Respiratory rate ([1]; 10 mg/kg): 4.1 ± 0.3
- Tail elevation ([1]; 10 mg/kg): 7.0 ± 0.7

SMILES: N=C(N)CCN1CC[C@]23c4c5ccc(O)c4O[C@H]2[C@@H](O)C=CC3[C@H]1C5 (stereo partly drawn) [KRS-41, (5α,6α)-7,8-didehydro-4,5-epoxy-17-N-[(2-aminoiminomethyl)ethyl]-morphinan-3,6-diol]
- % Reduction in Hind Paw Licking time ([2]; 10 mg/kg): 12%
- % Reduction in Hind Paw Licking time ([2]; 30 mg/kg): 75%
- analgesic activity at multiple of the morphine concentration ([2]; formalin test, relative to morphine): 3 times the morphine concentration
- % Reduction in Writhes ([3]; 3 mg/kg): 18%
- % Reduction in Writhes ([3]; 15 mg/kg): 93%
- analgesic activity at multiple of the morphine concentration ([3]; PQ writhing test, relative to morphine): 5 times the morphine concentration
- opiate activity in stimulated ileum compared to standard (μ opiate receptor): excellent activity compared to morphine
- Corneal reflex ([1]; 30 mg/kg): 4.9 ± 0.1
- Grip strength ([1]; 30 mg/kg): 5.1 ± 0.4
- Positional Passivity ([1]; 30 mg/kg): 4.7 ± 0.3
- Respiratory rate ([1]; 30 mg/kg): 5.1 ± 0.2
- Tail elevation ([1]; 30 mg/kg): 2.0 ± 0.4

SMILES: N=C(N)N1CC[C@]23c4c5ccc(O)c4O[C@H]2[C@@H](O)C=CC3[C@H]1C5 (stereo partly drawn) [KRS-2-19, (5α,6α)-7,8-didehydro-4,5-epoxy-17-N-(2-carboxamidino)-morphinan-3,6, -diol]
- agonist character (full / partial) (μ opiate receptor): only partial morphine agonist activity

SMILES: CN1CC[C@]23c4c5ccc(O)c4O[C@H]2[C@@H](O)C=C[C@H]3[C@H]1C5.Cl [Morphine HCl, reference compound]
- % Reduction in Hind Paw Licking time ([2]; 10 mg/kg): 100%
- % Reduction in Writhes ([3]; 3 mg/kg, HCl): 87% and 73%
